Data from PubChem BioAssay AID1134 (Emory University Molecular Libraries Screening Center, 2008).

How the values were obtained:
[1] = molecular target: Ubiquitin carboxyl-terminal hydrolase BAP1 (Homo sapiens) (UniProt Q92560); test: BAP1 inhibitor potency and UCH-L1 selectivity, dose response, selectivity assay, biochemical, ubiquitin-rhodamine110-glycine substrate (AID 1134); details: recombinant BAP1, ubiquitin-rhodamine110 cleavage fluorescence kinetic
[2] = as above; details: recombinant BAP1, ubiquitin-rhodamine110 cleavage fluorescence kinetic; measured here: UCH-L1 counter-screen IC50

Chain of Ubiquitin carboxyl-terminal hydrolase BAP1 (Homo sapiens) (Q92560 whole entry, looked up): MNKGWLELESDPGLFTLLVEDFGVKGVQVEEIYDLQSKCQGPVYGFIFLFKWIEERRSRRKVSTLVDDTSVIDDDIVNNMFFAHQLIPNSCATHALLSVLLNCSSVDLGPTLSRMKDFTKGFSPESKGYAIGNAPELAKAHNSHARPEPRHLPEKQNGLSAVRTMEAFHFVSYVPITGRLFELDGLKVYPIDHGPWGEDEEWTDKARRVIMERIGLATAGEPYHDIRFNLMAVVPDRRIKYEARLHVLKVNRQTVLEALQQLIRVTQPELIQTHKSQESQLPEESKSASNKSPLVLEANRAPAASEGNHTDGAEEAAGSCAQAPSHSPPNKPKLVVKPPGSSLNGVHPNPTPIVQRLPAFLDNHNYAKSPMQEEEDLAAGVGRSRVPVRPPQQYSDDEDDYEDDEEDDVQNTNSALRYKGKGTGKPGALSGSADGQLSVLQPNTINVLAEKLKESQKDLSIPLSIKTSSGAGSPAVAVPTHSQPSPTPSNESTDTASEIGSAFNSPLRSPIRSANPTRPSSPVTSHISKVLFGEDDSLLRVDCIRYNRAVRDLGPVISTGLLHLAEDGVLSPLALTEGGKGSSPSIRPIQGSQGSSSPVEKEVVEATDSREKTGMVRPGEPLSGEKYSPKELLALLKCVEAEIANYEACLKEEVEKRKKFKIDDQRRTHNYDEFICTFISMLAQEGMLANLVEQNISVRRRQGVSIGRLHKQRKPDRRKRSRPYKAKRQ

| SMILES | IC50 [1] [µM] | IC50 [2] [µM] |
| --- | --- | --- |
| Cc1sc(NC(=O)CSc2nnc(-c3ccc(O)cc3)o2)c(C#N)c1-c1ccc(CC(C)C)cc1 | 4.77 |  |
| Cc1sc(NC(=O)CSc2nnc(-c3ccncc3)o2)c(C#N)c1-c1ccc(F)cc1 | 8.8 |  |
| Cc1sc(NC(=O)CSc2nnc(-c3ccc(Cl)cc3)o2)c(C#N)c1-c1ccc(Cl)cc1Cl | 1.15 | 13.8 |
| CCOC(=O)c1cnc(SCC(=O)Nc2sc(C)c(C)c2C#N)nc1N | 2.54 | 44.3 |
| Cc1sc(NC(=O)CSc2nccc(-c3ccc(Cl)cc3)n2)c(C#N)c1-c1ccc(F)cc1 | 1.58 | 47.6 |
| Cc1sc(NC(=O)CSc2nnc(Cc3ccc(Cl)cc3)o2)c(C#N)c1-c1ccc(F)cc1 | 6.22 |  |
| Cc1sc(NC(=O)CSc2nnc(-c3ccc(Cl)cc3)o2)c(C#N)c1-c1ccc(F)cc1 | 0.81 | 21.2 |
| Cc1sc(NC(=O)CSc2nnc(-c3ccc(Cl)cc3)o2)c(C#N)c1-c1ccc(CC(C)C)cc1 | 3.73 | 20.6 |
| Cc1sc(NC(=O)CSc2nnc(-c3ccc(Cl)cc3)o2)c(C#N)c1-c1ccccc1 | 1.88 | 13.7 |
| Cc1ccc(-c2c(C)sc(NC(=O)CSc3nnc(-c4ccc(F)cc4)o3)c2C#N)cc1C | 3.95 | 26 |
| Cc1sc(NC(=O)CSc2nnc(-c3ccc(Cl)nc3)o2)c(C#N)c1-c1ccc(F)cc1 | 2.81 | 13.6 |
| Cc1sc(NC(=O)CSc2nnc(-c3ccc(I)cc3)o2)c(C#N)c1-c1ccc(F)cc1 | 2.76 | > 100 |
| COC(=O)c1c(NC(=O)CSc2nnc(-c3ccc(Cl)cc3)o2)sc(C)c1-c1ccc(F)cc1 | 3.59 | 23.6 |
| Cc1ccccc1Nc1nnc(SCC(=O)Nc2sc(C)c(-c3ccc(F)cc3)c2C#N)s1 | 8.8 |  |
| Cc1sc(NC(=O)CSc2nccc(-c3ccc(Cl)cc3)n2)c(C#N)c1C | 4.82 |  |
| Cc1sc(NC(=O)CSc2nnc(N3CCOCC3)o2)c(C#N)c1-c1ccc(F)cc1 | 16.8 |  |

| SMILES | IC50 [1] [µM] | IC50 [2] [µM] |
| --- | --- | --- |
| Cc1sc(NC(=O)CSc2nnc(-c3ccc(Br)cc3)o2)c(C#N)c1-c1ccc(F)cc1 | 0.9 | 16.9 |
| Cc1sc(NC(=O)CSc2n[nH]c(-c3ccc(O)cc3)n2)c(C#N)c1-c1ccc(F)cc1 | 2.19 | 10.1 |
| Cc1sc(NC(=O)CSc2nnc(-c3cccnc3)o2)c(C#N)c1-c1ccc(F)cc1 | 35.4 |  |
| O=C(NCc1ccco1)c1cc2nc(-c3ccc4c(c3)OCO4)cc(C(F)(F)F)n2n1 | 15.4 |  |
| Cc1sc(NC(=O)CSc2nnc(-c3ccc(O)cc3)o2)c(C#N)c1-c1ccc(F)cc1 | 15.3 |  |
| COC(=O)c1c(NC(=O)CSc2nnc(-c3ccc(O)cc3)o2)sc(C)c1-c1ccc(F)cc1 | 6.07 |  |
| O=C(CSc1nnc(-c2ccc(Cl)cc2)o1)Nc1cc(-c2ccc(F)cc2)[nH]n1 | 0.86 | 51.9 |
| Cc1ccccc1Nc1nnc(SCC(=O)NCc2ccco2)s1 | 17.4 |  |
| Cc1sc(NC(=O)CSc2nnc(-c3ccc(O)cc3)o2)c(C#N)c1-c1ccc(Cl)cc1Cl | 3.7 |  |
| Cc1sc(NC(=O)CSc2n[nH]c(-c3ccc(O)cc3)n2)c(C#N)c1C | 31.1 |  |
| Cc1sc(NC(=O)CSc2nnc(-c3ccc(O)cc3O)o2)c(C#N)c1-c1ccc(F)cc1 | 5.62 |  |
| O=C(CSc1nnc(-c2ccc(O)cc2)o1)Nc1cc(-c2ccc(F)cc2)[nH]n1 | 14.4 |  |
| Cc1ccc(-c2c(C)sc(NC(=O)CSc3nnc(-c4ccc(Cl)cc4)o3)c2C#N)cc1C | 5.19 | 7.55 |
| Cc1sc(NC(=O)CSc2nnc(-c3ccc(N)cc3)o2)c(C#N)c1-c1ccc(F)cc1 | 40.1 |  |
| Cc1sc(NC(=O)CSc2nnc(-c3ccc(Cl)cc3)o2)c(C(N)=O)c1-c1ccc(F)cc1 | 3.88 |  |
